ChEMBL document CHEMBL3991601, “The target landscape of clinical kinase drugs” (Science, 2017)
Calls of active or inactive are those of the source.

Assays:
[1] = target: Serine/threonine-protein kinase MRCK gamma (Homo sapiens, UniProt Q6DT37)
[2] = target: T1, ATP-dependent RNA helicase DDX1 (Homo sapiens, UniProt Q92499)
T1 sequence (Q92499 whole entry): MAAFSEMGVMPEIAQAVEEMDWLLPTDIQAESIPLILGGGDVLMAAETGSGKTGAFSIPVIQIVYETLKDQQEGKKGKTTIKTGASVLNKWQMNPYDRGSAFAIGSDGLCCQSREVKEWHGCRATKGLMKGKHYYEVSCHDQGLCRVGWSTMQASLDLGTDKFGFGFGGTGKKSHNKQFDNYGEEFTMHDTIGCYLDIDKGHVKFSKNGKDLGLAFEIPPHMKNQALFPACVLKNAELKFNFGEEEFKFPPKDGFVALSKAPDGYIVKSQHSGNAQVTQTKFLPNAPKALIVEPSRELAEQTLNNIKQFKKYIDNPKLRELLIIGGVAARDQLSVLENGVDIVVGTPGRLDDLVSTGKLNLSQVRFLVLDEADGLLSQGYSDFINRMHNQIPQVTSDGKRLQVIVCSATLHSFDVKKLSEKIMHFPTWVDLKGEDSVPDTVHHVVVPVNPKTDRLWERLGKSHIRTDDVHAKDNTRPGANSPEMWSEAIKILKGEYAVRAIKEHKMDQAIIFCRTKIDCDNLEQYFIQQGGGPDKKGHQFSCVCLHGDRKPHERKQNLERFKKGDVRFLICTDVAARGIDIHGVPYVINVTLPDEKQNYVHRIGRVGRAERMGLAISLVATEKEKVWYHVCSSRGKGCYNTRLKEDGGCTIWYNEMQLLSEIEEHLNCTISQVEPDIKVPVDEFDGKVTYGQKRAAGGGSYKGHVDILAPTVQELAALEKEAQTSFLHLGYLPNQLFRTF

Ephrin type-B receptor 4 = target: T2, Ephrin type-B receptor 4 (Homo sapiens, UniProt P54760)
T2 sequence (P54760 whole entry): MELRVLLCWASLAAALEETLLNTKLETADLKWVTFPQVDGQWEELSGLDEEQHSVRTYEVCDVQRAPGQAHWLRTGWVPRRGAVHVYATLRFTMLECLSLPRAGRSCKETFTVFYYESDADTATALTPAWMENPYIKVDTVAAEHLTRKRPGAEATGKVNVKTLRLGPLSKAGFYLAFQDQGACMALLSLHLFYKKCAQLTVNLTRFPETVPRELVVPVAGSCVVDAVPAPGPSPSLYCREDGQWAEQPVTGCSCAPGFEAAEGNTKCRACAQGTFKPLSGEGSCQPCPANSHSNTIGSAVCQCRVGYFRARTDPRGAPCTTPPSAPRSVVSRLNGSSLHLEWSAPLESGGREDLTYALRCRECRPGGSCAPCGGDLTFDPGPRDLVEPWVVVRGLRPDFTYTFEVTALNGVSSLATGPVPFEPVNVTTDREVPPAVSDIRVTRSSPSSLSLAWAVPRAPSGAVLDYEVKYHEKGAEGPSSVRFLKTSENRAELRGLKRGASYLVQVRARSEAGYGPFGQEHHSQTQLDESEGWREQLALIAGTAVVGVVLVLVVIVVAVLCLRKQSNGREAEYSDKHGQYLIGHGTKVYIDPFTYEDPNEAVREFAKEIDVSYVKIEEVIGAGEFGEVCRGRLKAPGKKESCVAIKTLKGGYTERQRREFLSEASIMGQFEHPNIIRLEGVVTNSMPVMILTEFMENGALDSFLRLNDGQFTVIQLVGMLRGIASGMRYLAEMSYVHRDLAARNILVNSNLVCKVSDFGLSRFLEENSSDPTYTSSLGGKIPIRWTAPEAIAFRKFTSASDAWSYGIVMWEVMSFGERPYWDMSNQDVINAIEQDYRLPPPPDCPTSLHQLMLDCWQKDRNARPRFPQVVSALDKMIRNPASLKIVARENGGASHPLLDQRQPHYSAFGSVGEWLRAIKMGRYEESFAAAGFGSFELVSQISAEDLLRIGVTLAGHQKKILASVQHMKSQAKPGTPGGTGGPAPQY

[3] = target: U5 small nuclear ribonucleoprotein 200 kDa helicase (Homo sapiens, UniProt O75643)
Chain of U5 small nuclear ribonucleoprotein 200 kDa helicase (O75643 whole entry): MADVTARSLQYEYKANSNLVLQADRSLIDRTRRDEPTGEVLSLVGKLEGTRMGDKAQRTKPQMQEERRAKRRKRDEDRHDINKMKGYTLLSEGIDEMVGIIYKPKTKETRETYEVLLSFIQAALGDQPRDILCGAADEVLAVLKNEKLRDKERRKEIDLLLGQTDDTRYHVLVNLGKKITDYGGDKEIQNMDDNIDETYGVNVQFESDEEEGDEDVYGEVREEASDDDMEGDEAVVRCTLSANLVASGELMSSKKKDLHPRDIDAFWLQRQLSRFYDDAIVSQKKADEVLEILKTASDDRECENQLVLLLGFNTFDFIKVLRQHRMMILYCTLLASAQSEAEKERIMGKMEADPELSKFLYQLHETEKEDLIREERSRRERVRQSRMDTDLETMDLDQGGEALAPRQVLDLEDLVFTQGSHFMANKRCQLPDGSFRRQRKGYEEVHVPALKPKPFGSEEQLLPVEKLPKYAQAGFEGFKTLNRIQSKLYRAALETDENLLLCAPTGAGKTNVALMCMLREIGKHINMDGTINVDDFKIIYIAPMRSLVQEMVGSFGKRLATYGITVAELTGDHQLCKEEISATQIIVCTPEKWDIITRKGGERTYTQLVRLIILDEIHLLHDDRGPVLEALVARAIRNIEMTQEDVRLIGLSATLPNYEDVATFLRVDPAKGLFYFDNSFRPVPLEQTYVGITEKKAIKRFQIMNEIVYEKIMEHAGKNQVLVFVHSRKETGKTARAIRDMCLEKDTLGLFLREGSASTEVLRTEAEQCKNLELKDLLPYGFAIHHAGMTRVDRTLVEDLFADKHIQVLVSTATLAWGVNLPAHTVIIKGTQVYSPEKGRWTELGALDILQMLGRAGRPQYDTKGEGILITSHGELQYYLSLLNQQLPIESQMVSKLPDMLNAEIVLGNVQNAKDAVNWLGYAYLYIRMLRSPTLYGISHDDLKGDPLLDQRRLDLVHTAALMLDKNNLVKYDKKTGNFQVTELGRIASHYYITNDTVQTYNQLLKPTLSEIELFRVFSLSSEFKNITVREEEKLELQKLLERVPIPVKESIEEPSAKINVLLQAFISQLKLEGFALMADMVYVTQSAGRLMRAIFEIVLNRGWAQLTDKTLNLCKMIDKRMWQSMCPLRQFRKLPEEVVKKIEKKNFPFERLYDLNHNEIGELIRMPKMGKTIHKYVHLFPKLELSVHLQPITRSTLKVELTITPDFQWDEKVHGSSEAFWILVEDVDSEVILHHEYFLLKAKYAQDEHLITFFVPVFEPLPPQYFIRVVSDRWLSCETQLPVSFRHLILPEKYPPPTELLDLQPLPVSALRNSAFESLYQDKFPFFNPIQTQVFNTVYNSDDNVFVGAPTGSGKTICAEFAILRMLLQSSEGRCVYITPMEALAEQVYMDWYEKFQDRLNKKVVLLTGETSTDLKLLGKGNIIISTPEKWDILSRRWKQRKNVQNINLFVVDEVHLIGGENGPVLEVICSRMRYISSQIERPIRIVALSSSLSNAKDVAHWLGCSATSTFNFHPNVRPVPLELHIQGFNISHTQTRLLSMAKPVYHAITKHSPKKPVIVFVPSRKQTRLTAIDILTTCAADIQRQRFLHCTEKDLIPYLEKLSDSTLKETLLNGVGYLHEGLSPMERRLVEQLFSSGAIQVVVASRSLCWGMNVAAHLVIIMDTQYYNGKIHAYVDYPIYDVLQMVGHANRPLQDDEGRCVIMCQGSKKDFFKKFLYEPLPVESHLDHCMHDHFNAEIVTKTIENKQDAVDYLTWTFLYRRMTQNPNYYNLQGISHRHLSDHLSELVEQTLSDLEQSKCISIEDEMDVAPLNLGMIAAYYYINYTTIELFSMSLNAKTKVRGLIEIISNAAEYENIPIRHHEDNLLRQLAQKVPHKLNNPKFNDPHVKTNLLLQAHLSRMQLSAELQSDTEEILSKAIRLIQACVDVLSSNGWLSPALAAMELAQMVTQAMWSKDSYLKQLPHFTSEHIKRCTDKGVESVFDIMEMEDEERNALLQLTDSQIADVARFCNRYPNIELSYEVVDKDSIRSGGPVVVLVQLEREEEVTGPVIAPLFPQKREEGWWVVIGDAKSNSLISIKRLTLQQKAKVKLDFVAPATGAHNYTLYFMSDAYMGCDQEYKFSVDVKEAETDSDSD

[4] = target: T3, Membrane-associated tyrosine- and threonine-specific cdc2-inhibitory kinase (Homo sapiens, UniProt Q99640)
T3 sequence (Q99640 whole entry): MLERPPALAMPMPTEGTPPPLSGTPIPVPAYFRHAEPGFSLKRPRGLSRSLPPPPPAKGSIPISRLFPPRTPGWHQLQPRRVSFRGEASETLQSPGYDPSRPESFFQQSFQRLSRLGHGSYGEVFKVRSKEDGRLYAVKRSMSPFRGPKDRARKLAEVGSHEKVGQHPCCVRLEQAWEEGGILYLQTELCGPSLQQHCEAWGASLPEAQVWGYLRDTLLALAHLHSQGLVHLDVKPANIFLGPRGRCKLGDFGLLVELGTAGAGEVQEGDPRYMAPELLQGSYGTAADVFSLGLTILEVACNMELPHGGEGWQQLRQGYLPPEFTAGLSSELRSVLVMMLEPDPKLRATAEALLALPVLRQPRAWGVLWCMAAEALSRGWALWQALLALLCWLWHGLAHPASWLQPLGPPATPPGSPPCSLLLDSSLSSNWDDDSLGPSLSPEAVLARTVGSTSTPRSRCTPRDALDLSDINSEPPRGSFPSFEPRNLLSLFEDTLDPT

[5] = target: Cyclin-dependent kinase 3 (Homo sapiens, UniProt Q00526)
Chain of Cyclin-dependent kinase 3 (Q00526 whole entry): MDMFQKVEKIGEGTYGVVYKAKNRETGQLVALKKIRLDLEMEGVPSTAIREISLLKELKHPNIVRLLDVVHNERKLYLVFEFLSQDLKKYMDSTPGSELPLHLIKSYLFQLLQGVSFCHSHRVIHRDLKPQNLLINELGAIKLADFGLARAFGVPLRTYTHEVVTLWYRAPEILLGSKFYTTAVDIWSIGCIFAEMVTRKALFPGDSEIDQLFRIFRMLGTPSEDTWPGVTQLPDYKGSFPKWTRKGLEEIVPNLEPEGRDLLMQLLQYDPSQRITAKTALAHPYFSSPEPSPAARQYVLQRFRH

TGF-beta receptor type-2 = TGF-beta receptor type-2 (Homo sapiens, UniProt P37173)
Chain of TGF-beta receptor type-2 (P37173 whole entry): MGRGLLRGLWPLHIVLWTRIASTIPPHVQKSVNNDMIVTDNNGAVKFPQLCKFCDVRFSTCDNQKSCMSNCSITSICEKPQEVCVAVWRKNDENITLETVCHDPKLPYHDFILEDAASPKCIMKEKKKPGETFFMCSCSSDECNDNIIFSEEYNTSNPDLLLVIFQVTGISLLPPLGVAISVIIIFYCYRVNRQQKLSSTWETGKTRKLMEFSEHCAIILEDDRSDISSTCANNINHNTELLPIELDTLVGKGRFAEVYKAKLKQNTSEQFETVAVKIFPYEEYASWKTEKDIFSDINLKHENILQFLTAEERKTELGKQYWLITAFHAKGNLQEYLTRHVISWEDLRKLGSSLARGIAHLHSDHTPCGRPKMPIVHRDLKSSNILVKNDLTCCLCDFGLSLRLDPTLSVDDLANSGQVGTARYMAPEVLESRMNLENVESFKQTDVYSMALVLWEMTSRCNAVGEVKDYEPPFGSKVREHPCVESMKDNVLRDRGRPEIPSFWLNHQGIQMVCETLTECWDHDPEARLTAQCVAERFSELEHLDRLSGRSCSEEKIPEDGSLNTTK
Further: in the data inactive means no Kd found up to 30 µM.

Chain of Serine/threonine-protein kinase MRCK gamma (Q6DT37 whole entry): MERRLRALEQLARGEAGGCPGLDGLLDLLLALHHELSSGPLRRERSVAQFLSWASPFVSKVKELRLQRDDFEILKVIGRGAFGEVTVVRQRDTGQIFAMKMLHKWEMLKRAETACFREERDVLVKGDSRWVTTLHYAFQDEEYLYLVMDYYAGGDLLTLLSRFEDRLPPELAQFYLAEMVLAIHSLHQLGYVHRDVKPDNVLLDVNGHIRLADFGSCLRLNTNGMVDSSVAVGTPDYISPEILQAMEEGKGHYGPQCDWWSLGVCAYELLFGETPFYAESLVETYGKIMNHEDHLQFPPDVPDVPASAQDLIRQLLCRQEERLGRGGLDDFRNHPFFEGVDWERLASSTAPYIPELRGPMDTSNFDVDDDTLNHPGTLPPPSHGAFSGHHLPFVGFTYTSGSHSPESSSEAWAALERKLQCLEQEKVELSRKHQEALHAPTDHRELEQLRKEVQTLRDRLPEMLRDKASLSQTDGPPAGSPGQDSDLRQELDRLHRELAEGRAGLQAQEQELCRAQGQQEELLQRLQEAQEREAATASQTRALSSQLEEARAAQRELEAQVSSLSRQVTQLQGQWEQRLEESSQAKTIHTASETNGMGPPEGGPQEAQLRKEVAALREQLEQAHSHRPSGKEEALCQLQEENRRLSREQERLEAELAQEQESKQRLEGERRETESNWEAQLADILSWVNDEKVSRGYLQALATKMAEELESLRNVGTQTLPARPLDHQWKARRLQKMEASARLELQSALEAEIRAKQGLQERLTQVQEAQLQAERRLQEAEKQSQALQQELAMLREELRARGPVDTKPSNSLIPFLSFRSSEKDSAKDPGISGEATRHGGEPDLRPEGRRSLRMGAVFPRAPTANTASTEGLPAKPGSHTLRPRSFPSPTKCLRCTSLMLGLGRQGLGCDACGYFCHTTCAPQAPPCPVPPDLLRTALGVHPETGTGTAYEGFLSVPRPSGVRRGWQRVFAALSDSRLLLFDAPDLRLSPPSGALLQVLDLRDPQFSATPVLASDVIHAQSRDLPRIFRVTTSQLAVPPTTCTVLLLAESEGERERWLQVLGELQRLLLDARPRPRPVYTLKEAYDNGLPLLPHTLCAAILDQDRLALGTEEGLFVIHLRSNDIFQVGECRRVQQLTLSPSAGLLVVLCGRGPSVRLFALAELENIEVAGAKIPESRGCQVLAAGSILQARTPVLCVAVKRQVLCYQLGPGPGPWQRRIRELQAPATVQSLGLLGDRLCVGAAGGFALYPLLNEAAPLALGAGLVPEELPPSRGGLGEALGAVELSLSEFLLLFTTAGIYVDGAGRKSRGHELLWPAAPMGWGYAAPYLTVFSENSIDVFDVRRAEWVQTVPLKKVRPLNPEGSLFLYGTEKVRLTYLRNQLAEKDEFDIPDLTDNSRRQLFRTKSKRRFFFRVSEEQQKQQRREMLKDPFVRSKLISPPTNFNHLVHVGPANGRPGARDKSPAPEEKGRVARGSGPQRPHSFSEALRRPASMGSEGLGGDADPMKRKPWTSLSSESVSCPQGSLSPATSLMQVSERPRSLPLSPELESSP

Kd [1] | Kd [2] | Kd (Ephrin type-B receptor 4) | Kd [3] | Kd [4] | Kd [5] | Kd (TGF-beta receptor type-2) | Compound
> 30 µM (inactive) | > 30 µM (inactive) | > 30 µM (inactive) | > 30 µM (inactive) | > 30 µM (inactive) | > 30 µM (inactive) | > 30 µM (inactive) | CNC(=O)c1cccc2cc(Oc3ccnc4cc(OCC5(N)CC5)c(OC)cc34)ccc12 [LUCITANIB]
> 30 µM (inactive) | > 30 µM (inactive) | > 30 µM (inactive) | > 30 µM (inactive) | > 30 µM (inactive) | > 30 µM (inactive) | > 30 µM (inactive) | NC1(c2ccc(-c3nc4ccn5c(=O)[nH]nc5c4cc3-c3ccccc3)cc2)CCC1 [MK-2206]
> 30 µM (inactive) | > 30 µM (inactive) | > 30 µM (inactive) | > 30 µM (inactive) | > 30 µM (inactive) | > 30 µM (inactive) | > 30 µM (inactive) | CN(C[C@@H]1COCCO1)S(=O)(=O)Nc1ccc2ccc3ncc(-c4cnn(C)c4)cc3c(=O)c2c1 [MK-2461]
> 30 µM (inactive) | > 30 µM (inactive) | > 30 µM (inactive) | > 30 µM (inactive) | > 30 µM (inactive) | > 30 µM (inactive) | > 30 µM (inactive) | Cn1cc(-c2cnc3ccc4ccc(CS(=O)(=O)NCc5ccccn5)cc4c(=O)c3c2)cn1 [MK-8033]
> 30 µM (inactive) | > 30 µM (inactive) | > 30 µM (inactive) | > 30 µM (inactive) | > 30 µM (inactive) | > 30 µM (inactive) | > 30 µM (inactive) | FC(F)(F)c1ccc(/C=C/c2nc(COc3ccc(CCCCn4ccnn4)cc3)co2)cc1 [MUBRITINIB]
> 30 µM (inactive) | > 30 µM (inactive) | > 30 µM (inactive) | > 30 µM (inactive) | > 30 µM (inactive) | > 30 µM (inactive) | > 30 µM (inactive) | COc1ncc(-c2ccc3nccc(-c4ccnnc4)c3c2)cc1NS(=O)(=O)c1ccc(F)cc1F [OMIPALISIB]
> 30 µM (inactive) | > 30 µM (inactive) | > 30 µM (inactive) | > 30 µM (inactive) | > 30 µM (inactive) | > 30 µM (inactive) | > 30 µM (inactive) | Cc1[nH]c(/C=C2\C(=O)Nc3ccccc32)c(C)c1CCC(=O)O [ORANTINIB]
> 30 µM (inactive) | > 30 µM (inactive) | > 30 µM (inactive) | > 30 µM (inactive) | > 30 µM (inactive) | 63.6 µM (active) | > 30 µM (inactive) | Cc1nc(Nc2n[nH]c3c2CN(C(=O)N[C@H](CN(C)C)c2ccccc2)C3(C)C)c2sccc2n1 [PF-03758309]
> 30 µM (inactive) | > 30 µM (inactive) | > 30 µM (inactive) | > 30 µM (inactive) | > 30 µM (inactive) | 1.53 µM (active) | > 30 µM (inactive) | CC(=O)NCC(=O)N1[C@@H]2CC[C@H]1c1ccc(Nc3ncc(C(F)(F)F)c(NC4CCC4)n3)cc12 [PF-03814735]
> 30 µM (inactive) | > 30 µM (inactive) | > 30 µM (inactive) | > 30 µM (inactive) | > 30 µM (inactive) | > 30 µM (inactive) | > 30 µM (inactive) | Cc1cnc(NC(=O)Nc2cc(Br)c(C)cc2OC[C@@H]2CNCCO2)cn1 [RABUSERTIB]
> 30 µM (inactive) | > 30 µM (inactive) | > 30 µM (inactive) | > 30 µM (inactive) | > 30 µM (inactive) | > 30 µM (inactive) | > 30 µM (inactive) | CO[C@H]1C[C@@H]2CC[C@@H](C)[C@@](O)(O2)C(=O)C(=O)N2CCCC[C@H]2C(=O)O[C@H]([C@H](C)C[C@@H]2CC[C@@H](OP(C)(C)=O)[C@H](OC)C2)CC(=O)[C@H](C)/C=C(\C)[C@@H](O)[C@@H](OC)C(=O)[C@H](C)C[C@H](C)/C=C/C=C/C=C/1C [RIDAFOROLIMUS]
> 30 µM (inactive) | > 30 µM (inactive) | > 30 µM (inactive) | > 30 µM (inactive) | > 30 µM (inactive) | > 30 µM (inactive) | > 30 µM (inactive) | O=c1[nH]ccc2cc(OC3CCNCC3)ccc12 [SAR-407899 FREE BASE]
> 30 µM (inactive) | > 30 µM (inactive) | > 30 µM (inactive) | > 30 µM (inactive) | > 30 µM (inactive) | > 30 µM (inactive) | 4.72 µM (active) | Cn1cc(-c2cnn3c(N)c(Br)c([C@@H]4CCCNC4)nc23)cn1 [SCH-900776]
> 30 µM (inactive) | > 30 µM (inactive) | 0.656 µM (active) | > 30 µM (inactive) | > 30 µM (inactive) | > 30 µM (inactive) | > 30 µM (inactive) | CCS(=O)(=O)c1cccc(-c2cc(C(=O)NC3CCN(C)CC3)c(C)c3[nH]c4ncc(C)cc4c23)c1 [TAK-901]
> 30 µM (inactive) | > 30 µM (inactive) | > 30 µM (inactive) | > 30 µM (inactive) | > 30 µM (inactive) | > 30 µM (inactive) | > 30 µM (inactive) | CO[C@H]1C[C@@H]2CC[C@@H](C)[C@@](O)(O2)C(=O)C(=O)N2CCCC[C@H]2C(=O)O[C@H]([C@H](C)C[C@@H]2CC[C@@H](OC(=O)C(C)(CO)CO)[C@H](OC)C2)CC(=O)[C@H](C)/C=C(\C)[C@@H](O)[C@@H](OC)C(=O)[C@H](C)C[C@H](C)/C=C/C=C/C=C/1C [TEMSIROLIMUS]
> 30 µM (inactive) | > 30 µM (inactive) | 0.037 µM (active) | > 30 µM (inactive) | > 30 µM (inactive) | > 30 µM (inactive) | > 30 µM (inactive) | COc1cc2c(Nc3ccc(Cl)c(Cl)c3F)ncnc2cc1OC[C@@H]1C[C@@H]2CN(C)C[C@@H]2C1 [TESEVATINIB]

Compound | Kd [1] | Kd [2] | Kd (Ephrin type-B receptor 4) | Kd [3] | Kd [4] | Kd [5] | Kd (TGF-beta receptor type-2)
O=C(Nc1cc(C(F)(F)F)cc(C(F)(F)F)c1)c1cc(Cl)ccc1O [IMD-0354] | > 30 µM (inactive) | > 30 µM (inactive) | > 30 µM (inactive) | > 30 µM (inactive) | > 30 µM (inactive) | > 30 µM (inactive) | > 30 µM (inactive)
CCOc1cc2ncc(C#N)c(Nc3ccc(F)c(Cl)c3)c2cc1NC(=O)/C=C/CN(C)C [PELITINIB] | > 30 µM (inactive) | > 30 µM (inactive) | > 30 µM (inactive) | > 30 µM (inactive) | > 30 µM (inactive) | > 30 µM (inactive) | > 30 µM (inactive)
CNC(=O)c1cc(Oc2ccc(NC(=O)Nc3cc(C(C)(C)C)nn3-c3ccc4ncccc4c3)c(F)c2)ccn1 [REBASTINIB] | > 30 µM (inactive) | > 30 µM (inactive) | > 30 µM (inactive) | > 30 µM (inactive) | > 30 µM (inactive) | 2.65 µM (active) | > 30 µM (inactive)
